row,Compound,melting point
1,O=C1c2ccccc2C(=O)c2cc(Br)c(Br)cc21,> 300 °C
2,CCc1cnc2ccnn2c1NCc1ccc(-c2ccccc2C#N)cc1,151 to 153 °C
3,COc1ccc2ccc3c4cc5c(cc4nnc3c2c1)OCO5,259 to 261 °C
4,C#CCOc1cc(Oc2cc(Cl)cc(Cl)c2)ncn1,136 °C
5,CN(C)C(=O)CCO[C@H]1CC[C@H](N(C)S(=O)(=O)c2ccc(C(F)(F)F)cc2)CC1,88 °C
6,O=C(CO)Cc1ccc2ccccc2c1,109 to 110 °C
7,CCCCC(=NNC(N)=S)OCC,73 to 74.5 °C
8,N#Cc1ccc2[nH]c(-c3ccc(Cl)c(Cl)c3)c(CCCC(=O)O)c2c1,190 to 195 °C
9,Nc1nnc(SCc2ccc(Cl)cc2)s1,162 to 164 °C
10,O=c1cc(N2CCOCC2)oc2ccc(Br)cc12,147 to 149 °C
11,CC(C)(C)OC(=O)NOCC(=O)NNC(=O)c1cc(S(=O)(=O)O)cc(O)c1O,148 to 150 °C
12,O=[N+]([O-])c1ccccc1-c1ccno1,66 to 69 °C
13,C[C@@H](N1CC(=O)N(c2ccc(F)cc2F)C1=O)[C@@]1(c2ccc(F)cc2F)CO1,124 to 125 °C
14,Cc1nc2ccccc2n1-c1ccccc1,46 to 48 °C
15,COc1cc(CN(C)c2ncnc3c(N4CCOCC4)nc(N4CCC(N(C)C)CC4)nc23)cc2ccccc12,130 °C
16,CCN(CC)CCN(CCN1CCCCC1)c1ccc(-c2nc3ccc(Cl)cc3[nH]2)cc1,156 °C
17,COc1cc2ncnc(N3c4ccccc4CC3CO)c2cc1OC (configuration not stated),146 to 147 °C
18,Cc1oc(-c2ccccc2)nc1COc1ccc(CCl)cn1,86 to 87 °C
19,FC(F)(F)c1cc(-c2ccnc(Nc3ccc4c(c3)OCCO4)c2)cc(C(F)(F)F)c1,130 to 132 °C
20,O=C(O)COC1(Cl)C=C2ONC(c3ccccc3F)=C2C(Cl)=C1Cl (configuration not stated),222 to 224 °C
21,COc1ccnc(C(C)S(=O)c2nc3cc(OC(F)(F)C(F)F)ccc3[nH]2)c1 (configuration not stated),156 to 157 °C
22,CC(=O)OCc1ccc2oc(=O)c(C(=O)Oc3cc(Cl)ccc3Cl)cc2c1,168 to 171 °C
23,Cc1nc(-c2cccc(I)c2)no1,90 to 91.5 °C
24,OC1CSC(Oc2cnccc2C(F)(F)F)C(O)C1O (configuration not stated),191 °C
25,COC(=O)Cc1ccc(O)c(NC(=O)C(C)(C)C)c1,112 to 113 °C
26,COc1ccccc1CNc1ccc2c(C(=N)c3ccc(F)cc3)cccc2n1,155 °C

row,Compound,melting point
1,CC(C)(C)C1c2ccccc2-c2cc(Br)ccc2N1S(=O)(=O)c1ccc(O)cc1 (configuration not stated),245 to 247 °C
2,CC1=CC(=Nc2nccs2)C(C)C(C)=C1O (configuration not stated),95 to 96 °C
3,CCC(C)(C)Nc1c(NCc2cccc(Cl)c2C)c(=O)c1=O,236 to 237 °C
4,CN1C(=O)CCC(C)(C)c2cc(Nc3ncc(Cl)c(Nc4ccccc4-n4cccn4)n3)ccc21,136 to 138 °C
5,COc1cccc(-c2cc(C#N)c(SC)[nH]2)c1,112 to 113 °C
6,CC(C)N(C(=O)CO)c1ccccc1,39 °C
7,CC(C)n1c(C=O)c(-c2ccc(F)cc2)c(-c2ccc(F)cc2)c1C(=O)O,228 to 230 °C
8,CC(C)(C)OC(=O)NNC(=O)N1CCC(Br)C1=O (configuration not stated),122 to 123 °C
9,CCOC(=O)c1nnn(Cc2ccccc2)c1N,153 °C
10,CCc1nn2c(N)cc(N3CCN(C)CC3)nc2c1S(=O)(=O)c1ccccc1,> 250 °C
11,Cc1c(C(=O)NC2(C(=O)O)Cc3cccc(Br)c3C2)oc2cc(-c3ccc(Cl)cc3)ccc12 (configuration not stated),230 °C
12,COC(=O)C=Cc1ccc(N2CCN(CCC3CCN(C(=O)OC(C)(C)C)CC3)C2=O)cc1,148 to 149 °C
13,CC(C)c1cc(Oc2ccc(Cl)cc2)nc(C(C)C)c1NC(=S)NC(C)(C)C,165 to 167 °C
14,CC(C)(C)[Si](C)(C)Oc1ccc(NC(=O)CCCl)cc1,126 °C
15,N[C@H](Cc1ccc2ccccc2c1)C(=O)O,242 to 244 °C
16,CN(C)NC(=O)c1sc(Nc2ccccc2)c2c1CCc1cnoc1-2,179 to 180 °C
17,CC(Nc1ccc(Oc2ccccc2)cc1)C(=O)O (configuration not stated),160 °C
18,O=C1Nc2ccccc2N2CCN(Cc3ccncc3)CC12 (configuration not stated),253 to 255 °C
19,NC(=S)Nc1ccc(Cl)c(Cl)c1Cl,115 to 117 °C
20,CN(C)c1ccc(-c2noc([C@H]3CCCN(C(=O)c4ccc(F)cc4)C3)n2)cc1,147 to 153 °C
21,O=c1occc2ccc(Cl)cc12,110 to 111 °C
22,O=C1c2ccc(Nc3ccccc3)nc2CC2CCCCC12 (configuration not stated),214 to 216 °C
23,O=Cc1cn(-c2cccnc2)c2ccccc12,148 to 150 °C
24,COC(=O)CC1OCCN(CCc2c[nH]c3ccc(C)cc23)C1=O (configuration not stated),138 °C
25,Cc1ccc(N2CCN(c3c(C)c(C)c4c(c3C)CC(C)(C)O4)CC2)cc1Cl,146 to 148 °C
26,COc1ccc(C2=C(OC(C)=O)C(=O)Nc3ccc(Cl)cc3S2)cc1,236 to 238 °C

row,Compound,melting point
1,CC(C)(C)c1cc(OCC(=O)NN)cc(C(C)(C)C)c1O,141 to 142 °C
2,Oc1cccc(NCCc2ccccc2)n1,97 to 99 °C
3,O=C(NC(=O)C(c1ccccc1)c1ccccc1)OCC1CC1,108 °C
4,CS(=O)(=O)OCCn1c2ccc(O)cc2c2c3c(c(-c4ccccc4)cc21)C(=O)NC3=O,271 to 276 °C
5,COC(=O)CCC(=NO)C(C)(C)NCCCNC(C)(C)C(Cn1ccnc1[N+](=O)[O-])=NO,137 to 139 °C
6,COC(=O)c1cc(Br)n2c1CN(C(=O)OC(C)(C)C)CC2,109 °C
7,O=[N+]([O-])c1ccc(Cl)cc1NC12CC3CC(CC(C3)C1)C2,146 °C
8,CCOC(=O)C(C)(Cc1cccc(OCCN2CCCCC2)c1)S(=O)(=O)c1ccc(OC)cc1 (configuration not stated),112 °C
9,Cc1cc(SC2=C(O)CC(CCc3ccco3)(C(C)C)OC2=O)c(C(C)(C)C)cc1CO (configuration not stated),64 to 110 °C
10,CCCCCCOc1ccc(-c2ncc(-c3ccc(OCc4ccccc4)c(F)c3F)cn2)cn1,115 °C
11,CCC1(C)CC2(NC(=O)N(C)C2=O)C(C)C(C)(CC)N1C (configuration not stated),190 to 195 °C
12,CC(C)(C)OC(=O)C1CC1c1ccc(-c2ncn(-c3ccc(OC(F)(F)F)cc3)n2)cc1 (configuration not stated),100 to 101 °C
13,CN(C)c1ccc(C2(CNC(=O)Nc3ccccc3CCc3cc(C(C)(C)C)c(O)c(C(C)(C)C)c3)CCCC2)cc1,174 to 175 °C
14,CN(C)[C@H]1CCN(C(=O)c2ccc(Cc3cn(C)c4ccccc34)cc2)C1,101 to 105 °C
15,Cc1cnc2nc(S(=O)(=O)Cl)nn2c1,106 to 108 °C
16,O=C(NN=Cc1ccccc1)c1ccc(C(F)(F)F)cc1,216 to 217 °C
17,O=c1ccc(-c2ccc(OCCCN3CCCCC3)nc2)n[nH]1,155 to 158 °C
18,COc1cc(NC(=O)OCC2c3ccccc3-c3ccccc32)ccc1C=O,187 to 188 °C
19,CON=C1Cc2ccccc2N(C(N)=O)c2ccccc21,158 to 159 °C
20,Cc1ccc(-c2cc(-c3ccccc3)c(-c3ccccc3)s2)cc1,110 to 112 °C
21,COc1cccc2c1nc(C(F)F)n2-c1nc(-c2cncnc2)cc(N2CCOCC2)n1,222 to 224 °C
22,CNc1ncnc2c1ncn2Cc1c(Cl)cccc1Cl,219 to 220 °C
23,N#Cc1ccc2cc(CCCc3cc4ccc(C#N)cc4o3)oc2c1,199 to 201 °C
24,N#CCc1ccc(Cl)cc1C(=O)O,120 °C
25,CCOC(=O)c1cnc2sc(C)c(C)n12,60 to 61 °C
26,NCC1Cc2cc(C(F)(F)F)cc(-c3cccc(Cl)c3Cl)c2O1 (configuration not stated),152 to 155 °C

row,Compound,melting point
1,CCn1cc(C(=O)O)c(=O)c2cc(F)c(N3CCNC(c4cc[nH]c4)C3)cc21 (configuration not stated),220 °C
2,CC(=O)CC(=O)NC1CC(C)(C)NC(C)(C)C1,115 °C
3,O=C(Cc1ccc(O)c([N+](=O)[O-])c1)N[C@H]1C[C@H](C(=O)O)Nc2cc(Cl)cc(Cl)c21 (relative stereo),245 to 247 °C
4,Cc1cc2nc(S(=O)(=O)CC(F)(F)F)[nH]c2cc1F,164 to 166 °C
5,C=Cc1ccccc1OC(C)C(=O)N1CCCC1 (configuration not stated),85 to 86 °C
6,CC(C)CCCC(C)NC(=O)CCC(=O)c1ccccc1 (configuration not stated),84 to 87 °C
7,CC(=O)NC[C@H]1CN(c2ccc(N3CCC4(CC3)COCO4)c(F)c2)C(=O)O1,142 to 144 °C
8,CC(C)NC1=NS(=O)(=O)c2cc(C(F)(F)F)ccc2N1,287 to 289 °C
9,CC=CCn1c(C)c(C)c2cnnc(OCc3ccc(Cl)cc3Cl)c21,133 to 134 °C
10,Nc1cnccc1CCCOc1cccnc1Oc1cccc(Cl)c1,140 to 142 °C
11,CN(C)C(=O)c1ccc(Cl)c(C#N)c1,193 °C
12,CNC1CCN(c2cc3c(cc2F)c(=O)c(C(=O)O)c2n3C(C)S2)C1 (configuration not stated),213 to 216 °C
13,CN(C(=O)c1cccc(S(=O)(=O)N(C)c2ccc(S(C)=O)cc2)c1)c1ccc(Cl)cc1F (configuration not stated),104 to 106 °C
14,Cc1cc(C)c2cccc(OCc3c(Cl)ccc(S(=O)(=O)N4CCC[C@H]4C(=O)NCCCNC(=O)COc4ccc(C=NN)cc4)c3Cl)c2n1,124 to 128 °C
15,Cc1nc(C(O)(c2nc(C)c(C)s2)C(C)(C)C)sc1C,91 to 92 °C
16,NC(=O)C(=O)NCCc1ccc(OCc2ccccc2)c(OCc2ccccc2)c1,187 °C
17,C=CCOc1ccc(C=Cc2ccc([N+](=O)[O-])cc2)cc1,114 °C
18,Clc1cccc2c(CN3CCN(c4cc5ccccc5cn4)CC3)n[nH]c12,208 to 209 °C
19,C=CCNc1nc(NC(=O)Nc2ccccc2OC)nc(N(CCC(=O)O)Cc2ccc(Cl)c(Cl)c2)n1,201 °C
20,CCCOc1cc(C)c(C(=O)O)c(OCc2ccc(OCCc3nc(-c4ccccc4)oc3C)cc2)c1,50 to 52 °C
21,Cc1ccc(=Nc2nnc(C(F)(F)F)s2)n(-c2cccc(C(F)(F)F)c2)c1,179 °C
22,FC(F)(F)c1cccc(CCc2nnc(-c3ccc4ncsc4c3)o2)c1,126 to 127 °C
23,Cc1ncc(C(=O)O)c(C2=NC(C)(C(C)C)C(=O)N2)n1 (configuration not stated),56 to 57 °C
24,CCCn1c(=O)c2c(nc(/C=C/c3ccc(OC(C)=O)c(OC)c3)n2C)n(CCC)c1=O,179 to 181 °C
